Several values for one entry are separate records, joined by “and”; a condition that tells them apart may be missing. Identical values can stand only once.
Columns and labels:
[1] = tested on: nephrectomized rats; assay: 5/6 nephrectomy rat model: glomerular damage and sclerosis (PAS); assay type: in vivo, Sprague Dawley (SD) Rats; settings: for Glomerular sclerosis, Global % (Mean ± S.E) / Glomerular sclerosis, Global & Segmental % (Mean ± S.E) / Glomerular sclerosis, Segmental % (Mean ± S.E): Nx rats, VB-201 4 mg/kg or telmisartan 10 mg/kg, 8 weeks; for reduction of damaged glomeruli vs Nx PBS 0.5% Eth / reduction of sclerotic glomeruli vs Nx PBS 0.5% Eth: VB-201 4 mg/kg or telmisartan 10 mg/kg oral, 7 weeks, evaluated at 8 weeks
Method: Male Sprague Dawley (SD) Rats (Harlan Laboratories, Israel) with an initial weight of 200 g were housed 2-3 per cage in IVC cages in dedicated HVAC (heat, ventilation, air conditioning) animal facility. The facility had no exposure to outside light and was maintained on automatic alternating cycles of 12 hours of light and 12 hours of dark. Animals were provided with a commercial rodent diet (Harlan Teklad TRM Rat/Mouse Diet) ad libitum and allowed free access to autoclaved water, supplied to each cage via polysulphone bottles with stainless steel sipper tubes. All animal work was approved by the Animal Care and Use Committee of Israel (IL-13-03-027).
(§1) Rats were divided into three groups: (1) Healthy rats (n=3) in group A, (2) Sham group—subjected to chirurgical process but without kidney mass reduction (n=3) in group B, and (3) the rest were induced with chronic renal failure (n=24). Chronic renal failure was induced by a two stage (5/6) nephrectomy (Nx), with subtraction firstly of about ⅔ of the left kidney by left flank incision and, one week later, complete removal of the right kidney. General anesthesia consisted of intraperitoneal injection of ketamine 100 mg/kg and xylazine 20 mg/kg (0.85 ml ketamine+0.15 ml xylazine for each ml preparation; 1 μl/g BW was injected I.P).
One week following the second surgery, rats were randomly assigned to the following experimental groups:
Nephrectomized, orally administered with VB-201 4 mg/kg (n=8); and
Nephrectomized, orally administered with telmisartan 10 mg/kg as positive control (n=8).
(§2) Body weight (BW) was monitored throughout the study and rats were treated by oral gavage according to their body weight for 7 weeks. Rats were sacrificed by CO2 inhalation 8 weeks from removal of the right kidney (2nd surgery).
Upon sacrifice, at 8 weeks, kidneys were collected, weighed and fixed in 4% formaldehyde.
For light microscopy, paraffin-embedded tissue slides of 4 μm were stained with Periodic Acid-Schiff (PAS) reagent.
Glomerulosclerosis was assessed by PAS-stained sections using a semiquantitative scoring system. The extent of glomerulosclerosis was evaluated by examining mostly 100 randomly selected glomeruli at a magnification of ×400 and applying a score system according to the percentage of sclerosed glomerular area. The score was graded from 0 to 4: (0=0% area; 1=1-25%; 2=26-50%, 3=51-75%, 4=76% and above). The mean of all scored glomeruli was presented. Moreover, the extent of global and segmental glomerulosclerosis was evaluated in the same glomeruli, where <80% sclerosis was referred to as segmental and >80% was referred to as global.
The glomerular area of mostly 100 randomly selected glomeruli at a magnification of ×100 was quantitated by counting squares covered by glomeruli area using a grid and the mean glomeruli area was calculated.
Glomeruli were evaluated for their fibrosis extent by scoring and by calculation of the percent of glomeruli having segmental sclerosis, global sclerosis and the sum of global and segmental sclerotic glomeruli. Moreover, the area of the glomeruli was calculated and the percent of hypertrophied glomeruli was calculated. Damaged glomeruli included hypertrophied (at least ×1.5 from normal area) and or sclerotic glomeruli.

[2] = tested on: nephrectomized rats; assay: 5/6 nephrectomy rat model: ED-1/CD68+ monocyte/macrophage infiltration, immunohistochemistry; assay type: in vivo, Sprague Dawley (SD) Rats; settings: VB-201 4 mg/kg or telmisartan 10 mg/kg, 8 weeks after surgery; for ED-1/CD68+ Glomerular monocytes/macrophages (Mean ± S.E) / ED-1/CD68+ Interstitial monocytes/macrophages (Mean ± S.E): Nx rats
Source text: as §1, §2
Renal tissues were fixed in 4% formaldehyde and embedded in paraffin. The paraffin-embedded tissues were then cut to form tissue slides of 4 μm. Immunohistochemistry of the paraffin-embedded tissue slides was analyzed using antibodies in the following concentration: monoclonal mouse anti rat CD-68 (ED-1, Serotec MCA341) 1:25. For quantitation of interstitial CD68+ staining, the number of positive cells was counted in 20 randomly selected non-overlapping fields per animal, and the mean value was presented.

[3] = tested on: TGF-β; assay: 5/6 nephrectomy rat model: kidney TGF-β mRNA, real-time PCR; assay type: in vivo, Sprague Dawley (SD) Rats; settings: kidney of Nx rats, 8 weeks; for reduction of TGF-β mRNA expression vs Nx PBS 0.5% Eth: VB-201 4 mg/kg or telmisartan 10 mg/kg; for TGF-β relative mRNA expression (mean ± SEM): normalized to TBP, relative to Sham PBS 0.5% Eth
Source text: as §1, §2
(§3) Kidney RNA was extracted with an RNeasy Fibrous Tissue Mini kit (Qiagen) and after DNAse I treatment, single-stranded cDNA was synthesized from 2 μg total RNA using the qScript cDNA Synthesis Kit (Quanta Biosciences) and diluted for real-time PCR. The expression of collagen 4a, fibronectin and TGFβ was quantified using the 7300 Real Time PCR System (Applied Biosystems). The assay was performed according to manufacturer instructions using the primers (Assay ID) represented at the table below supplied by Applied Biosystems. Data were normalized to the reference gene TATA-box Binding Protein (TBP) and presented as relative mRNA levels compared with Sham PBS 0.5% Eth treatment (Table 1).

[4] = tested on: Collagen IV; assay: 5/6 nephrectomy rat model: kidney Collagen IV mRNA, real-time PCR; assay type: in vivo, Sprague Dawley (SD) Rats; settings: kidney of Nx rats, 8 weeks; for reduction of Collagen IV mRNA expression vs Nx PBS 0.5% Eth: VB-201 4 mg/kg or telmisartan 10 mg/kg; for Collagen IV relative mRNA expression (mean ± SEM): normalized to TBP, relative to Sham PBS 0.5% Eth
Source text: as §1, §2, §3

[5] = tested on: NASH mouse model; assay: NASH mouse model (STZ + HFD): liver inflammation and fibrosis histology; assay type: in vivo; settings: NASH mice; for reduction of liver inflammation (inflammation score) vs vehicle: VB-201 4 mg/kg or telmisartan 10 mg/kg once daily for three weeks
Method: Neonatal male mice exposed to low-dose streptozotocin (STZ) develop liver steatosis with diabetes. Continuous high fat diet (HFD) increases lobular inflammation with foam cell-like macrophages, showing nonalcoholic steatohepatitis (NASH) pathology. NASH was induced in 40 male mice by a single subcutaneous injection of 200 μg per mouse of STZ two days after birth and feeding HFD [57 kcal % fat]) from four weeks of age. Vehicle, VB-201 (4 mg/kg), or telmisartan (10 mg/kg) as positive control, were administered once daily for three weeks, starting from six weeks of age. Mice were sacrificed at nine weeks of age.
Liver pathology was used to determine the effect of VB-201 on liver inflammation and fibrosis. Histology slides were stained with hematoxylin/eosin (H&E) to assess inflammation. The inflammation score was determined as follows:
Histology slides were stained with Sirius red to determine collagen content as a marker for the extent of fibrosis.

For CCCCCCCCCCCCCCCCOCC(COP(=O)([O-])OCC[N+](C)(C)C)OCCCCC(=O)O (centres unmarked) [VB-201, 1-hexadecyl-2-(4′-carboxybutyl)-glycero-3-phosphocholine], the “Glomerular sclerosis, Global % (Mean ± S.E)” value [1] was 5.4 ± 3.22%, the “Glomerular sclerosis, Global & Segmental % (Mean ± S.E)” value [1] was 31.8 ± 4.92% and the “Glomerular sclerosis, Segmental % (Mean ± S.E)” value [1] was 26.5 ± 4.39%. For the same molecule, the “reduction of damaged glomeruli vs Nx PBS 0.5% Eth” value [1] was 29%, the “reduction of sclerotic glomeruli vs Nx PBS 0.5% Eth” value [1] was 34% and the “ED-1/CD68+ Glomerular monocytes/macrophages (Mean ± S.E)” value [2] was 2.113±0.374 Cells/Glomeruli and 2.113 Cells/Glomeruli. For the same molecule, the “ED-1/CD68+ Interstitial monocytes/macrophages (Mean ± S.E)” value [2] was 269.25±25.41 Cells/mm^2 and 269.3 Cells/mm^2, the “reduction of number of glomerular monocytes/macrophages vs Nx PBS 0.5% Eth” value [2] was 42% and the “reduction of number of interstitial monocytes/macrophages vs Nx PBS 0.5% Eth” value [2] was 49%. For the same molecule, the “reduction of TGF-β mRNA expression vs Nx PBS 0.5% Eth” value [3] was 37%, the “TGF-β relative mRNA expression (mean ± SEM)” value [3] was 5.3±0.33 and the “reduction of Collagen IV mRNA expression vs Nx PBS 0.5% Eth” value [4] was 42%. For the same molecule, the “Collagen IV relative mRNA expression (mean ± SEM)” value [4] was 4.3±0.33, the “decrease of extent of liver fibrosis (Sirius red fibrosis area) vs vehicle” value ([5]; VB-201 4 mg/kg once daily for three weeks) was “about 34%” and the “reduction of liver inflammation (inflammation score) vs vehicle” value [5] was 65%.
With CCCc1nc2c(C)cc(-c3nc4ccccc4n3C)cc2n1Cc1ccc(-c2ccccc2C(=O)O)cc1 [telmisartan, reference compound] the “Glomerular sclerosis, Global % (Mean ± S.E)” value [1] was 1.9 ± 1.60%, the “Glomerular sclerosis, Global & Segmental % (Mean ± S.E)” value [1] was 21.0 ± 5.45% and the “Glomerular sclerosis, Segmental % (Mean ± S.E)” value [1] was 19.1 ± 4.30%. The “reduction of damaged glomeruli vs Nx PBS 0.5% Eth” value [1] was 31%, the “reduction of sclerotic glomeruli vs Nx PBS 0.5% Eth” value [1] was 57% and the “ED-1/CD68+ Glomerular monocytes/macrophages (Mean ± S.E)” value [2] was 3.185±0.427 Cells/Glomeruli and 3.185 Cells/Glomeruli. The “ED-1/CD68+ Interstitial monocytes/macrophages (Mean ± S.E)” value [2] was 421.0±61.77 Cells/mm^2 and 421.0 Cells/mm^2, the “reduction of number of glomerular monocytes/macrophages vs Nx PBS 0.5% Eth” value [2] was 13% and the “reduction of number of interstitial monocytes/macrophages vs Nx PBS 0.5% Eth” value [2] was 20%. For the same molecule, the “reduction of TGF-β mRNA expression vs Nx PBS 0.5% Eth” value [3] was 44%, the “TGF-β relative mRNA expression (mean ± SEM)” value [3] was 4.7±0.52 and the “reduction of Collagen IV mRNA expression vs Nx PBS 0.5% Eth” value [4] was 41%. The “Collagen IV relative mRNA expression (mean ± SEM)” value [4] was 4.4±0.23 and the “reduction of liver inflammation (inflammation score) vs vehicle” value [5] was 77%.
